Type in all cases: functional
One experiment deals with Bacillus spizizenii. Description: Antimicrobial activity against Bacillus subtilis subsp. spizizenii ATCC 6633 after 24 hr by broth dilution method. Particulars: ATCC 6633, 24 h. (Dilution methods test growth across graded concentrations, often in twofold steps.)
Experiment [1] has as its system Staphylococcus epidermidis. Put plainly: Antimicrobial activity against Staphylococcus epidermidis ATCC 12228 after 24 hr by broth dilution method. Conditions: ATCC 12228, 24 h.
The test system of another experiment is Micrococcus luteus. Put plainly: Antimicrobial activity against Micrococcus luteus ATCC 4698 after 24 hr by broth dilution method. Particulars: ATCC 4698, 24 h.
Another experiment relates to Staphylococcus aureus. Put plainly: Antimicrobial activity against Staphylococcus aureus ATCC 25923 after 24 hr by broth dilution method. Particulars: ATCC 25923, 24 h.
A further experiment deals with Staphylococcus hominis. Description: Antimicrobial activity against Staphylococcus hominis ATCC 27844 after 24 hr by broth dilution method. Particulars: ATCC 27844, 24 h.
The next experiment concerns Bacillus pumilus. Description: Antimicrobial activity against Bacillus pumilus ATCC 14884 after 24 hr by broth dilution method. Conditions: ATCC 14884, 24 h.
A further experiment relates to Bacillus cereus. Description: Antimicrobial activity against Bacillus cereus ATCC 11778 after 24 hr by broth dilution method. Particulars: ATCC 11778, 24 h.
For the next experiment, the system named is Proteus vulgaris. Put plainly: Antimicrobial activity against Proteus vulgaris ATCC 13315 after 24 hr by broth dilution method. Particulars: ATCC 13315, 24 h.
In another experiment the test system is Proteus mirabilis. Description: Antimicrobial activity against Proteus mirabilis ATCC 49565 after 24 hr by broth dilution method. Conditions: ATCC 49565, 24 h.
The test system of another experiment is Salmonella typhi. Description: Antimicrobial activity against Salmonella enterica subsp. enterica serovar Typhi ATCC 19430 after 24 hr by broth dilution method. Conditions: ATCC 19430, 24 h.
The next experiment relates to Klebsiella pneumoniae. Put plainly: Antimicrobial activity against Klebsiella pneumoniae ATCC 13883 after 24 hr by broth dilution method. Conditions: ATCC 13883, 24 h.
The test system of another experiment is Escherichia coli. Put plainly: Antimicrobial activity against Escherichia coli ATCC 25922 after 24 hr by broth dilution method. Conditions: ATCC 25922, 24 h.
The test system of a further experiment is Pseudomonas aeruginosa. Put plainly: Antimicrobial activity against Pseudomonas aeruginosa ATCC 10145 after 24 hr by broth dilution method. Conditions: ATCC 10145, 24 h.
The subject of a further experiment is Aspergillus niger. Description: Antimicrobial activity against Aspergillus niger ATCC 9142 after 24 hr by broth dilution method. Particulars: ATCC 9142, 24 h.
Another experiment concerns Aspergillus awamori. Description: Antimicrobial activity against Aspergillus awamori ATCC 22342 after 24 hr by broth dilution method. Particulars: ATCC 22342, 24 h.
The next experiment has as its system Candida albicans. Description: Antimicrobial activity against Candida albicans ATCC 10231 after 24 hr by broth dilution method. Particulars: ATCC 10231, 24 h.
For a further experiment, the system named is Alternaria alternata. Put plainly: Antimicrobial activity against Alternaria alternata ATCC 66868 after 24 hr by broth dilution method. Particulars: ATCC 66868, 24 h.
In another experiment the test system is Microsporum canis. Description: Antimicrobial activity against Arthroderma otae ATCC 11622 after 24 hr by broth dilution method. Conditions: ATCC 11622, 24 h.
For a further experiment, the system named is Rhizoctonia solani. Description: Antimicrobial activity against Rhizoctonia solani ATCC 76131 after 24 hr by broth dilution method. Particulars: ATCC 76131, 24 h.
The next experiment has as its system Trichophyton longifusum. Description: Antimicrobial activity against Trichophyton longifusum ATCC 22397 after 24 hr by broth dilution method. Particulars: ATCC 22397, 24 h.
The next experiment has as its system Fusarium solani. Put plainly: Antimicrobial activity against Fusarium solani ATCC 38136 after 24 hr by broth dilution method. Particulars: ATCC 38136, 24 h.
The next experiment relates to Trichoderma viride. Put plainly: Antimicrobial activity against Hypocrea rufa ATCC 52440 after 24 hr by broth dilution method. Particulars: ATCC 52440, 24 h.
Another experiment deals with Aspergillus flavus. Put plainly: Antimicrobial activity against Aspergillus flavus ATCC 15517 after 24 hr by broth dilution method. Conditions: ATCC 15517, 24 h.
The test system of a further experiment is Aspergillus fumigatus. Put plainly: Antimicrobial activity against Aspergillus fumigatus after 24 hr by broth dilution method.

≈ marks a conversion by molar mass, not a printed value.

Usually MIC stands for the lowest concentration found to suppress growth.

As to `COc1ccc(C2C(Cl)C(=O)N2/N=C2\C(=O)Nc3ccc(Cl)cc32)cc1` (stereo unspecified), the MIC in the experiment on Bacillus spizizenii is 18.8 µg/mL (≈ 48 µM); in [1] it was 9.37 µg/mL (≈ 24 µM); against Micrococcus luteus it was 9.37 µg/mL (≈ 24 µM); in the experiment with Staphylococcus aureus, 18.8 µg/mL (≈ 48 µM); against Staphylococcus hominis it was 18.8 µg/mL (≈ 48 µM); in the experiment with Bacillus pumilus, 9.37 µg/mL (≈ 24 µM). The minimum inhibitory concentration (MIC) is 9.37 µg/mL (≈ 24 µM) against Bacillus cereus; 18.8 µg/mL (≈ 48 µM) against Proteus vulgaris; 18.8 µg/mL (≈ 48 µM) against Proteus mirabilis; 9.37 µg/mL (≈ 24 µM) in the experiment on Salmonella typhi; 9.37 µg/mL (≈ 24 µM) in the experiment on Klebsiella pneumoniae; 9.37 µg/mL (≈ 24 µM) against Escherichia coli. In addition, the MIC against Pseudomonas aeruginosa amounted to 9.37 µg/mL (≈ 24 µM); with Aspergillus niger, 4.68 µg/mL (≈ 12 µM); with Aspergillus awamori, 4.68 µg/mL (≈ 12 µM); against Candida albicans it was 4.68 µg/mL (≈ 12 µM); in the experiment with Alternaria alternata, 9.37 µg/mL (≈ 24 µM); against Microsporum canis, 9.37 µg/mL (≈ 24 µM). Further, the MIC with Rhizoctonia solani came to 9.37 µg/mL (≈ 24 µM); against Trichophyton longifusum, 4.68 µg/mL (≈ 12 µM); against Fusarium solani it was 4.68 µg/mL (≈ 12 µM); against Trichoderma viride, 4.68 µg/mL (≈ 12 µM); in the experiment with Aspergillus flavus, 9.37 µg/mL (≈ 24 µM); with Aspergillus fumigatus it was 4.68 µg/mL (≈ 12 µM).

For the compound `O=C1Nc2ccc(Cl)cc2/C1=N/N1C(=O)C(Cl)C1c1ccc(F)cc1` (stereo unspecified), the minimum inhibitory concentration (MIC) was 9.37 µg/mL (≈ 24.8 µM) against Bacillus spizizenii; 18.8 µg/mL (≈ 49.6 µM) in [1]; 18.8 µg/mL (≈ 49.6 µM) against Micrococcus luteus; 18.8 µg/mL (≈ 49.6 µM) against Staphylococcus aureus; 9.37 µg/mL (≈ 24.8 µM) in the experiment with Staphylococcus hominis; 18.8 µg/mL (≈ 49.6 µM) in the experiment on Bacillus pumilus. Further, the MIC against Bacillus cereus is 18.8 µg/mL (≈ 49.6 µM); in the experiment on Proteus vulgaris, 18.8 µg/mL (≈ 49.6 µM); against Proteus mirabilis, 9.37 µg/mL (≈ 24.8 µM); against Salmonella typhi it was 9.37 µg/mL (≈ 24.8 µM); against Klebsiella pneumoniae, 18.8 µg/mL (≈ 49.6 µM); against Escherichia coli, 18.8 µg/mL (≈ 49.6 µM). Besides, the MIC with Pseudomonas aeruginosa is 18.8 µg/mL (≈ 49.6 µM); with Aspergillus niger it was 4.68 µg/mL (≈ 12.4 µM); against Aspergillus awamori, 4.68 µg/mL (≈ 12.4 µM); against Candida albicans, 4.68 µg/mL (≈ 12.4 µM); with Alternaria alternata, 4.68 µg/mL (≈ 12.4 µM); with Microsporum canis, 9.37 µg/mL (≈ 24.8 µM). For the same compound, the minimal inhibitory concentration (MIC) in the experiment with Rhizoctonia solani was found to be 9.37 µg/mL (≈ 24.8 µM); in the experiment with Trichophyton longifusum it was 9.37 µg/mL (≈ 24.8 µM); in the experiment with Fusarium solani, 9.37 µg/mL (≈ 24.8 µM); in the experiment with Trichoderma viride, 9.37 µg/mL (≈ 24.8 µM); with Aspergillus flavus it was 4.68 µg/mL (≈ 12.4 µM); in the experiment with Aspergillus fumigatus, 9.37 µg/mL (≈ 24.8 µM).

Consider `O=C1Nc2ccc(Cl)cc2/C1=N/N1C(=O)C(Cl)C1c1ccc([N+](=O)[O-])cc1` (stereo unspecified), for which the MIC in the experiment on Bacillus spizizenii amounted to 9.37 µg/mL (≈ 23.1 µM); in experiment [1] it was 18.8 µg/mL (≈ 46.3 µM); in the experiment with Micrococcus luteus it was 9.37 µg/mL (≈ 23.1 µM); in the experiment on Staphylococcus aureus, 18.8 µg/mL (≈ 46.3 µM); against Staphylococcus hominis, 18.8 µg/mL (≈ 46.3 µM); with Bacillus pumilus, 9.37 µg/mL (≈ 23.1 µM). Further, the minimum inhibitory concentration (MIC) against Bacillus cereus came to 9.37 µg/mL (≈ 23.1 µM); in the experiment with Proteus vulgaris, 9.37 µg/mL (≈ 23.1 µM); against Proteus mirabilis, 9.37 µg/mL (≈ 23.1 µM); with Salmonella typhi, 9.37 µg/mL (≈ 23.1 µM); against Klebsiella pneumoniae, 9.37 µg/mL (≈ 23.1 µM); in the experiment with Escherichia coli it was 18.8 µg/mL (≈ 46.3 µM). Moreover, the minimum inhibitory concentration (MIC) worked out at 9.37 µg/mL (≈ 23.1 µM) with Pseudomonas aeruginosa; 4.68 µg/mL (≈ 11.5 µM) in the experiment with Aspergillus niger; 9.37 µg/mL (≈ 23.1 µM) with Aspergillus awamori; 4.68 µg/mL (≈ 11.5 µM) against Candida albicans; 4.68 µg/mL (≈ 11.5 µM) against Alternaria alternata; 4.68 µg/mL (≈ 11.5 µM) in the experiment on Microsporum canis. Moreover, the MIC in the experiment on Rhizoctonia solani turned out to be 9.37 µg/mL (≈ 23.1 µM); against Trichophyton longifusum it was 9.37 µg/mL (≈ 23.1 µM); in the experiment with Fusarium solani, 9.37 µg/mL (≈ 23.1 µM); with Trichoderma viride it was 9.37 µg/mL (≈ 23.1 µM); in the experiment on Aspergillus flavus, 4.68 µg/mL (≈ 11.5 µM); with Aspergillus fumigatus, 9.37 µg/mL (≈ 23.1 µM).

In the case of `O=C(O)c1cn(C2CC2)c2cc(N3CCNCC3)c(F)cc2c1=O` [CIPROFLOXACIN], the minimal inhibitory concentration (MIC) (in the experiment with Bacillus spizizenii; in experiment [1]; in the experiment on Micrococcus luteus; against Staphylococcus aureus; in the experiment with Staphylococcus hominis; in the experiment on Bacillus pumilus) was 4.7 µg/mL (≈ 14.2 µM) throughout. Moreover, the MIC with Bacillus cereus, in the experiment with Proteus vulgaris, against Proteus mirabilis, in the experiment on Salmonella typhi, against Klebsiella pneumoniae and in the experiment on Escherichia coli was 4.7 µg/mL (≈ 14.2 µM) each time. Further, the lowest concentration to inhibit growth against Pseudomonas aeruginosa (MIC) was 4.7 µg/mL (≈ 14.2 µM).

As for `Clc1ccccc1C(c1ccccc1)(c1ccccc1)n1ccnc1` [CLOTRIMAZOLE], the MIC against Aspergillus niger turned out to be 2.34 µg/mL (≈ 6.79 µM); against Aspergillus awamori it was 2.34 µg/mL (≈ 6.79 µM); against Candida albicans, 0.58 µg/mL (≈ 1.68 µM); against Alternaria alternata it was 2.34 µg/mL (≈ 6.79 µM); against Microsporum canis it was 1.17 µg/mL (≈ 3.39 µM); with Rhizoctonia solani it was 1.17 µg/mL (≈ 3.39 µM). Moreover, the MIC against Trichophyton longifusum came to 2.34 µg/mL (≈ 6.79 µM); against Fusarium solani, 1.17 µg/mL (≈ 3.39 µM); in the experiment with Trichoderma viride, 1.17 µg/mL (≈ 3.39 µM); in the experiment with Aspergillus flavus, 2.34 µg/mL (≈ 6.79 µM); against Aspergillus fumigatus, 2.34 µg/mL (≈ 6.79 µM).

The record behind these values is ChEMBL document CHEMBL3046063, “Synthesis and antimicrobial activity of 5-chloroindoline-2,3-dione derivatives” (2012).
